Test results published in patent US8450286B2, “Method for treating cancers having high glucose requirements employing an SGLT2 inhibitor and compositions thereof” (Bristol-Myers Squibb Company, priority 2008, dated 2013).

Experiments:
healthy subjects = healthy subjects taking 5, 20, 50 or 100 mg; versus known SGLT2 inhibitor GSK 869,682 (50, 100, 200 or 500 mg); FIG. 1
Procedure: The panel at the top of FIG. 1 is from a presentation by GSK in an analyst meeting, showing the amount of glucose excretion/day in healthy subjects taking 50, 100, 200 or 500 mg of GSK 869,682. The panel at the bottom is from study MB-102001, showing the amount of glucose excretion/day in healthy subjects taking 5, 20, 50 or 100 mg of compound Ia.

[1] = system: subjects with type 2 diabetes; details: 14-day multiple ascending dose, compared to placebo, FIG. 2
Source text: Results from the 24-hour glucose excretion are shown in FIG. 2 for all subjects in the MB-102003 study. The mean urine glucose is in the darker lines.

Structure (SMILES): CCOc1ccc(Cc2cc([C@@H]3O[C@H](CO)[C@@H](O)[C@H](O)[C@H]3O)ccc2Cl)cc1 [compound Ia]
- glucosuric effect: loss of calories in the urine (glucose excretion/day) (healthy subjects): significant loss of calories in the urine
- 24-hour urine glucose excretion [1]: higher urine glucose excretion
